In US12565489B2, “Heterocyclyl pyrimidines and triazines as novel fungicides” (Bayer Aktiengesellschaft, priority 2020, dated 2026):
Read-outs that look alike come from different tables or passages of the source.

Assay: Measurement of Log P values by HPLC on reversed phase columns (EEC directive 79/831 Annex V.A8)
Format: physicochemical
Protocol: Measurement of Log P values as provided herein was performed according to EEC directive 79/831 Annex V.A8 by HPLC (High Performance Liquid Chromatography) on reversed phase columns with the following methods: • ^[a] Log P value is determined by measurement of LC-UV, in an acidic range, with 0.1% formic acid in water and acetonitrile as eluent (linear gradient from 10% acetonitrile to 95% acetonitrile). • ^[b] Log P value is determined by measurement of LC-UV, in a neutral range, with 0.001 molar ammonium acetate solution in water and acetonitrile as eluent (linear gradient from 10% acetonitrile to 95% acetonitrile). • ^[c] Log P value is determined by measurement of LC-UV, in an acidic range, with 0.1% phosphoric acid and acetonitrile as eluent (linear gradient from 10% acetonitrile to 95% acetonitrile).
If more than one Log P value is available within the same method, all the values are given and separated by “+”.
Calibration was done with straight-chain alkan2-ones (with 3 to 16 carbon atoms) with known Log P values (measurement of Log P values using retention times with linear interpolation between successive alkanones). Lambda-max-values were determined using UV-spectra from 200 nm to 400 nm and the peak values of the chromatographic signals

| SMILES | chromatographic logP (LogP) | chromatographic logP (reversed phase HPLC column, method [a]: LC-UV, acidic range, 0.1% formic acid in water and acetonitrile as eluent, read-out: LogP) |
| --- | --- | --- |
| CSc1ncc(Br)c(C(=O)N[C@@H](CON)Cc2ccc(C)cc2C)n1 (racemic) [Compound 6b-01] | 2.49 |  |
| Cc1ncc(Oc2cccc(Cl)c2)c(C(=O)O)n1 [Compound 1-03] | 2 |  |
| Cc1ccc(C[C@H](N)CON2C(=O)c3ccccc3C2=O)c(C)c1 (racemic) [Compound 2-01] |  | 1.55 |
| Cc1ccc(CC(CCl)NC(=NO)c2nc(C)ncc2Br)c(C)c1 (racemic) [Compound 13-01, 5-bromo-N-[(2RS)-1-chloro-3-(2,4-dimethylphenyl)propan-2-yl]-N′-hydroxy-2-methylpyrimidine-4-carboximidamide] | 3.26 |  |
| CSc1ncc(Br)c(C(=O)N[C@@H](CON2C(=O)c3ccccc3C2=O)Cc2ccc(C)cc2C)n1 (racemic) [Compound 6a-01] | 4.55 |  |
| Cc1ncc(Oc2cccc(Cl)c2)c(C(N)=NOC(C)(C)C(=O)c2ccc(F)cc2F)n1 [Compound 19-03] | 3.41 |  |
| COC(=N)c1nc(C)ncc1Oc1cccc(Cl)c1 [Compound 20-01, methyl 5-(3-chlorophenoxy)-2-methyl-pyrimidine-4-carboximidate] | 2.19 |  |
| Cc1ncc(Oc2cccc(Cl)c2)c(C(N)=NO[C@H](F)C(=O)c2ccc(Cl)cc2)n1 (racemic) [Compound 19-04] | 3.4 |  |
| Cc1ncc(Oc2cccc(Cl)c2)c(C(N)=NOCC(=O)c2ccc3c(c2)OCCO3)n1 [Compound 19-02] | 3.12 |  |
| C#Cc1cccc(Oc2cnc(C)nc2C(=O)N[C@@H](CON2C(=O)c3ccccc3C2=O)Cc2ccc(C)cc2C)c1 (racemic) [Compound 3-02] | 4.41 |  |
| Cc1ccc(CC2CCN=C(c3nc(C)ncc3Oc3cccc(Cl)c3)N2)c(C)c1 (racemic) [Compound I-022, 5-(3-chlorophenoxy)-2-methyl-4-[(6RS)-6-[(2,4-dimethylphenyl)methyl]-1,4,5,6-tetrahydropyrimidin-2-yl]pyrimidine] | 2.59 |  |
| Cc1ncc(Oc2cccc(Cl)c2)c(C2=NOC(C)(C)[C@@H](c3ccc(F)cc3F)N2)n1 (racemic) [Compound I-035] | 3.84 |  |
| Cc1ccc(C[C@H](N)CCN)c(C)c1 (racemic) [Compound 9-06] | 0.23 |  |
| Cc1ncc(Oc2cccc(Br)c2)c(C(=O)O)n1 [Compound 1-04] | 2.15 |  |

More lines, now with the values ahead:

| chromatographic logP (LogP) | chromatographic logP (reversed phase HPLC column, method [a]: LC-UV, acidic range, 0.1% formic acid in water and acetonitrile as eluent, read-out: LogP) | SMILES |
| --- | --- | --- |
| 4.7 |  | Cc1ccc(C[C@H](CCl)NC(=O)c2nc(C)ncc2Oc2cccc(Cl)c2F)c(Cl)c1 (racemic) [Compound 10-05] |
| 3.7 |  | Cc1ccc(CC(CON)NC(=O)c2nc(C3CC3)ncc2Oc2cccc(C(F)(F)F)c2)c(C)c1 (racemic) [Compound 4-01, N-[(2RS)-1-(aminooxy)-3-(2,4-dimethylphenyl)propan-2-yl]-2-cyclopropyl-5-[3-(trifluoromethyl)phenoxy]pyrimidine-4-carboxamide] |
| 4.86 |  | Cc1ncc(Oc2cccc(C(F)(F)F)c2)c(C(=O)N[C@@H](CCl)Cc2ccc(Br)cc2C)n1 (racemic) [Compound 10-06] |
| 4.92 |  | Cc1ncc(Oc2cccc(C(F)(F)F)c2)c(C(=O)N[C@@H](CCl)Cc2ccc(SC(F)(F)F)cc2)n1 (racemic) [Compound 10-09] |
| 3.66 |  | Cc1ccc(CC(CCl)NC(=O)c2nc(C)ncc2Br)c(C)c1 (racemic) [Compound 12-01, 5-bromo-N-[(2RS)-1-chloro-3-(2,4-dimethylphenyl)propan-2-yl]-2-methyl-pyrimidine-4-carboxamide] |
| 4.51 |  | Cc1ccc(C[C@H](CCl)NC(=NO)c2nc(C)ncc2Oc2cccc(C3CC3)c2F)c(C)c1 (racemic) [Compound 11-04] |
| 4.28 |  | Cc1ccc(C[C@H](CCl)NC(=NO)c2nc(C)ncc2Oc2cccc(Cl)c2)c(Cl)c1 (racemic) [Compound 11-05] |
| 4.47 |  | COc1ccc(C[C@H](CCl)NC(=O)c2nc(C)ncc2Oc2cccc(C(F)(F)F)c2)c(Cl)c1 (racemic) [Compound 10-01] |
